From patent publication US20170273961A1, “NOVEL IMINONITRILE DERIVATIVES” (CURADEV PHARMA, PVT. LTD., priority 2014, published 2017)

Biological target: T1, IDO1 (Mus musculus, UniProt P28776)
T1 construct: LPS-injected mice have been used as models to study IDO1 expression and activity; from tissue; host or cells: whole animal: LPS-injected C57BL/6 mice, with IDO1 induced in a variety of tissues
Assay: Reduction of LPS induced plasma kynurenine levels in C57BL/6 mice
Assay type: in vivo
Conditions: LPS-injected (6 mg/kg i.p.) C57BL/6 mice; test compound given orally 20 h after LPS; plasma KYN by LC/MS/MS at 2 hr post dosing
Excerpt: Inflammatory mediators such as Lipopolysaccharides (LPS) and Interferon-gamma (IFNg) are well-established inducers of IDO1 expression. Intraperitoneal (i.p.) administration of bacterial lipopolysaccharide (LPS) induces peak IDO1 activity in a variety of tissues within one day after LPS administration resulting in the production and release of kynurenine into the bloodstream (Takikawa, O., et al. (1986) J. Biol. Chem. 261:3648-53; Yoshida, H., et al. (1998) Cell 94:739-750). LPS-injected mice have been used as models to study IDO1 expression and activity. Three—eight fed C57 BL/6 mice (age 7-8 weeks, weight: about 20-22 g) were injected intrapritoneally with bacterial lipopolysaccharide (LPS; 26:B6 Sigma) at a concentration of 6 mg/kg. Animals were then housed in normal condition for 20 hours at which time the test compounds were administered orally in formulation containing 30% polyethylene glycol 400 (PEG 400) and 20% propylene glycol (PG) in normal saline (Dosing volume 10 mL/kg). Blood was drawn through retro-orbital bleeds into a tube containing 100 mM EDTA for plasma collection at the following times: just prior to LPS treatment, just prior to test compound dosing (0 hr) and then at 2 hr, 4 hr, 6 hr, 8 hr, 24 hr and 48 hr post-test compound dosing. Plasma KYN and drug levels were determined by LC/MS/MS using an API4000 mass spectrometer (Applied Biosystems) coupled to a Shimadzu Prominence LC system fitted with a C18 column.
The compounds of the invention decrease kynurenine levels. The compounds of the invention trigger a decrease of kynurenine levels at 2 hrs of at least 5%.

T1 sequence (P28776 whole entry): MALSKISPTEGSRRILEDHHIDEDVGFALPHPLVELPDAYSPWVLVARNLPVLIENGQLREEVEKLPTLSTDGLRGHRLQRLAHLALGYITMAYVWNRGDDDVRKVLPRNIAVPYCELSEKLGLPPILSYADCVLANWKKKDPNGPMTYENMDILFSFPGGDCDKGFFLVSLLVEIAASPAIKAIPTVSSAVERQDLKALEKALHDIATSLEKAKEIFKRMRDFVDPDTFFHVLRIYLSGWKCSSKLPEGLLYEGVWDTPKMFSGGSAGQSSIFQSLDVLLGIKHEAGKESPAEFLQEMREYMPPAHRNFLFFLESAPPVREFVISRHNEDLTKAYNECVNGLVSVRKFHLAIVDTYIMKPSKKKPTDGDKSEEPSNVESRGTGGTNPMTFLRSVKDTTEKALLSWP

Compound	percentage of decrease of kynurenine level at two hours
N#C/C(=N\c1ccc(F)c(Cl)c1)c1ccncc1O [Compound 01, N-(3-Chloro-4-fluorophenyl)-3-hydroxyisonicotinimidoyl nitrile]	73%
N#C/C(=N\c1ccc(F)c(Cl)c1)c1ccnc(C#N)c1O [Compound 02, N-(3-Chloro-4-fluorophenyl)-2-cyano-3-hydroxyIsonicotinimidoyl nitrile]	45%
N#C/C(=N\c1ccc(F)c(C(F)(F)F)c1)c1ccnc(C#N)c1O [Compound 03, 2-Cyano-N-(4-fluoro-3-(trifluoromethyl)phenyl)-3-hydroxyisonicotinimidoyl nitrile]	25%
N#C/C(=N\c1ccc(F)c(Cl)c1)c1ccnc(-c2ccncc2)c1O [Compound 04, N-(3-Chloro-4-fluorophenyl)-3-hydroxy-[2,4′-bipyridine]-4-carbimidoyl nitrile]	77%
N#C/C(=N\c1ccc(F)c(C(F)(F)F)c1)c1ccncc1O [Compound 05, N-(4-Fluoro-3-(trifluoromethyl)phenyl)-3-hydroxyisonicotinimidoyl nitrile]	64%
N#C/C(=N\c1ccc(F)c(Cl)c1)c1cc(F)ncc1O [Compound 06, N-(3-Chloro-4-fluorophenyl)-2-fluoro-5-hydroxyIsonicotinimidoyl nitrile]	73%
CNC(=O)c1cc(-c2nccc(/C(C#N)=N/c3ccc(F)c(Cl)c3)c2O)ccn1 [Compound 07, N-(3-Chloro-4-fluorophenyl)-3-hydroxy-2′-(methylcarbamoyl)-[2,4′-bipyridine]-4-carbimidoyl nitrile]	43%
N#C/C(=N\c1ccc(F)c(F)c1)c1ccnc(-c2ccncc2)c1O [Compound 08, N-(3,4-Difluorophenyl)-3-hydroxy-[2,4′-bipyridine]-4-carbimidoyl nitrile]	83%
Cc1cc(-c2nccc(/C(C#N)=N/c3ccc(F)c(Cl)c3)c2O)ccn1 [Compound 09, N-(3-Chloro-4-fluorophenyl)-3-hydroxy-2′-methyl-[2,4′-bipyridine]-4-carbimidoyl nitrile]	71%
Cc1cc(-c2nccc(/C(C#N)=N/c3ccc(F)c(F)c3)c2O)ccn1 [Compound 10, N-(3,4-Difluorophenyl)-3-hydroxy-2′-methyl-[2,4′-bipyridine]-4-carbimidoyl nitrile]	79%
Cc1cc(-c2nccc(/C(C#N)=N/c3ccc(F)cc3)c2O)ccn1 [Compound 11, N-(4-Fluorophenyl)-3-hydroxy-2′-methyl-[2,4′-bipyridine]-4-carbimidoyl nitrile]	82%
N#C/C(=N\c1ccc(F)c(Cl)c1)c1ccnc(Nc2ccccc2)c1O [Compound 12, N-(3-Chloro-4-fluorophenyl)-3-hydroxy-2-(phenylamino)isonicotinimidoyl nitrile]	15%
N#C/C(=N\c1ccc(F)c(Cl)c1)c1ccnc(-c2ccccc2)c1O [Compound 13, N-(3-Chloro-4-fluorophenyl)-3-hydroxy-2-phenylisonicotinimidoyl nitrile]	46%
COc1cc(/C(C#N)=N/c2ccc(F)c(Cl)c2)c(O)cn1 [Compound 14, N-(3-Chloro-4-fluorophenyl)-5-hydroxy-2-methoxyisonicotinimidoyl nitrile]	18%
COc1cc(-c2nccc(/C(C#N)=N/c3ccc(F)c(Cl)c3)c2O)ccn1 [Compound 15, N-(3-Chloro-4-fluorophenyl)-3-hydroxy-2′-methoxy-[2,4′-bipyridine]-4-carbimidoyl nitrile]	47%
Cc1cc(-c2nccc(/C(C#N)=N/c3ccc(F)c(Cl)c3)c2O)cc(C)n1 [Compound 16]	36%
N#C/C(=N\c1ccc(F)c(Cl)c1)c1ccnc(-c2ccc3c(c2)OCO3)c1O [Compound 17, 2-(Benzo[d][1,3]dioxol-5-yl)-N-(3-chloro-4-fluorophenyl)-3-hydroxyisonicotinimidoyl nitrile]	10%
Cc1nccc(/C(C#N)=N/c2ccc(F)c(Cl)c2)c1O [Compound 18, N-(3-Chloro-4-fluorophenyl)-3-hydroxy-2-methylisonicotinimidoyl nitrile]	53%
N#C/C(=N\c1ccc(F)c(Cl)c1)c1ccnc(Br)c1O [Compound 19, 2-Bromo-N-(3-chloro-4-fluorophenyl)-3-hydroxyIsonicotinimidoyl nitrile]	38%
N#C/C(=N\c1ccccc1Cl)c1ccnc(-c2ccncc2)c1O [Compound 20]	46%
N#C/C(=N\c1ccc(F)c(Cl)c1)c1ccnc(-c2cc(F)nc(F)c2)c1O [Compound 21, N-(3-Chloro-4-fluorophenyl)-2′,6′-difluoro-3-hydroxy-[2,4′-bipyridine]-4-carbimidoyl nitrile]	21%
N#C/C(=N\c1cccc(Cl)c1)c1ccnc(-c2ccncc2)c1O [Compound 22, N-(3-Chlorophenyl)-3-hydroxy-[2,4′-bipyridine]-4-carbimidoyl nitrile]	87%
Cc1cc(-c2nccc(/C(C#N)=N/c3cccc(Cl)c3)c2O)ccn1 [Compound 23, N-(3-Chlorophenyl)-3-hydroxy-2′-methyl-[2,4′-bipyridine]-4-carbimidoyl nitrile]	79%
Cc1cc(-c2nccc(/C(C#N)=N/c3ccccc3)c2O)ccn1 [Compound 24, 3-Hydroxy-2′-methyl-N-phenyl-[2,4′-bipyridine]-4-carbimidoyl nitrile]	81%
Cc1cc(-c2nccc(/C(C#N)=N/c3ccccc3Cl)c2O)ccn1 [Compound 25, N-(2-Chlorophenyl)-3-hydroxy-2′-methyl-[2,4′-bipyridine]-4-carbimidoyl nitrile]	37%
Cc1cc(-c2nc(C)cc(/C(C#N)=N/c3ccc(F)c(Cl)c3)c2O)ccn1 [Compound 26, N-(3-Chloro-4-fluorophenyl)-3-hydroxy-2′,6-dimethyl-[2,4′-bipyridine]-4-carbimidoyl nitrile]	11%
Cc1cc(-c2nccc(/C(C#N)=N/c3ccc(F)cc3F)c2O)ccn1 [Compound 27, N-(2,4-Difluorophenyl)-3-hydroxy-2′-methyl-[2,4′-bipyridine]-4-carbimidoyl nitrile]	64%
N#C/C(=N\c1cccc(C(F)(F)F)c1)c1ccnc(-c2ccncc2)c1O [Compound 28, 3-Hydroxy-N-(3-(trifluoromethyl)phenyl)-[2,4′-bipyridine]-4-carbimidoyl nitrile]	70%
Cc1cc(-c2nccc(/C(C#N)=N/c3cccc(F)c3)c2O)ccn1 [Compound 29, N-(3-Fluorophenyl)-3-hydroxy-2′-methyl-[2,4′-bipyridine]-4-carbimidoyl nitrile]	75%
